Test results from patent publication US10058099B2, “Antimicrobial materials and methods” (University of Florida Research Foundation, Inc., priority 2011, dated 2018).
Values after ≈ are worked out from the molar mass of the structure shown. Where two headings read alike, the source gives them in different places.

Key:
[1] = system: E. coli K12 biofilms; experiment: Minimum inhibitory concentration (MIC) with the Calgary Biofilm Device (MBEC assay); type: cell-based, Escherichia coli K-12; details: 24 h, dark, 37 °C, 90% inhibition of growth, OD 600 nm
Protocol: To screen the effectiveness of EO-OPEs shown above at killing bacteria residing in a biofilm, a Calgary Biofilm Device (CBD), commercially available as the MBEC™ assay was used to grow 96 equivalent biofilms at a time, and to determine the minimum inhibitory concentration (MIC). After incubating the CBD devise in Escherichia coli (E. coli K12) suspension in LB media for 24 hours, biofilms were uniformly formed on the CBD surface. The E. coli biofilms were then incubated with EO-OPEs for 24 hours to obtain their MIC values.
(§1) Escherichia coli K-12 was obtained from the American Type Culture Collection (ATCC #10798), revived in Luria Broth (LB, Sigma) and stored in LB with 20% (v/v) glycerol at −70° C. Stock cultures maintained on agar (2% Difco) plates of LB were used to inoculate 50 mL cultures in liquid LB. E. coli was grown at 37° C. for 18 h. Bacteria were grown as a microbial biofilm using a Calgary Biofilm Device (CBD), commercially available as the MBEC™ assay, featuring 96 pegs protruding down from a microtiter plate lid and fitting into the wells of a standard 96-well microtiter plate. This device allows 96 identical biofilms to grow on the pegs at a time. Biofilms of E. coli were grown in each well using 150 μL of the culture diluted to 1×10^7 CFU (colony forming unit) following previous calibration. The biofilms were grown at 37° C. for 24 h in a shaker at 150 rpm.
The minimum inhibitory concentration (MIC) represents the lowest concentration of antimicrobial required to inhibit the visible growth of a planktonic bacterial population. The MIC was determined using the CBD.^17, 18, 20 Biofilms were formed on the peg surface of the CBD as described above and then transferred to a 96-well microtiter plate containing 200 μL of saline (0.85% NaCl aqueous solution) and washed for 5 min to remove non-adherent bacteria. The biofilms were transferred to a plate containing 200 μL of LB with a gradient concentration of the OPEs (challenge plate). Each concentration was repeated eight times (one row of the plate). The biofilms were then incubated in the dark at 37° C. for 24 h. To determine the MIC, the growth of bacteria was evaluated in the challenge plate after incubation. The optical density of each well was measured at 600 nm and the MIC was calculated for 90% inhibition of growth compared with biofilms grown in LB only.

[2] = system: E. coli biofilms; experiment: Minimum biofilm eradication concentration (MBEC) with the Calgary Biofilm Device; type: cell-based, Escherichia coli K-12; details: for MBEC (light) / MBEC (dark): E. coli biofilm; for MBEC (light): 1 h near-UV light (300-400 nm); for MBEC (dark): 24 h incubation in the dark
Protocol: as §1
The Minimum biofilm eradication concentration (MBEC) is the lowest concentration at which bacteria from a biofilm fail to regrow. The MBEC was also measured using the CBD and detailed procedure has been described elsewhere.^17, 18, 20 Biofilms were formed and washed as described above. The biofilms were then transferred to a plate containing saline with a gradient concentration of the OPEs (challenge plate). The samples exposed to light were incubated for 1 h in a LuzChem ORG photoreactor using Hitachi FL8BL-B (λ=300-400 nm) lamps, whereas the samples kept in the dark, were incubated for 24 h in a shaker at 150 rpm. The biofilms were then removed from the challenge plate and washed twice in a plate of saline solution to remove traces of OPEs. The biofilms were placed in a plate containing LB media (recovery plate) and sonicated for 10 min in an ultrasonic cleaner (VWR 97043-964) in order to recover the biofilm in the media solution through vibration. The recovery plate containing the biofilms was incubated in the dark at 37° C. for 24 h. To determine the MBEC, the growth of bacteria was evaluated in the recovery plate after incubation. […] Bacterial grown in a specific well indicates regrowth of planktonic bacteria from surviving biofilm, while clear wells indicate the eradication of the biofilms and the lack of bacteria regrowth.

[3] = Singlet oxygen quantum yield, emission at 1270 nm; type: physicochemical; details: CD3OD, 2'-acetonaphthone (ΦΔ = 0.79) as actinometer
Source text: We carried out transient absorption experiments in methanol and water solutions. […] The lifetime of the transient absorption is in the microsecond range and in each case it is efficiently quenched by O2 indicating the absorption is due to the triplet excited state. By examination of the initial amplitudes of the transient absorption (ΔA, t=0, Table 1), we were able to qualitatively determine the relative triplet yield of these oligomers. […] To substantiate our hypothesis, we carried out studies to observe singlet oxygen emission in deuterated methanol (as the life time of the singlet oxygen is very short in […]).^21 As anticipated, each of the oligomers is capable of sensitizing the formation of singlet oxygen as observed by its characteristic emission at 1270 nm. Of the oligomers studied, (C) and (E) show a higher quantum yield for singlet oxygen generation (ΦΔ) which corroborates well with the photophysical studies described above.
Absorption and fluorescence spectra were recorded on a Cary 100 UV-Vis spectrophotometer and a Photon Technology International spectrofluorometer, respectively. The optical density of the solutions was adjusted to ˜0.7 at the excitation wavelength (355 nm) with the laser energy set at ˜7 mJ. Solutions were purged with argon for 45 min before making transient absorption spectroscopy measurements. Singlet oxygen quantum yields were measured using a Photon Technology International Quantamaster near-IR spectrophotometer equipped with an InGaAs photodiode detector, optical chopper and a lock in amplifier. See Table 1 and FIGS. 1-2 for results.

[4] = system: S. aureus; experiment: Viability of S. aureus cells after UV exposure or dark incubation with oligomer solution; type: cell-based; details: for killing / deactivation of S. aureus: 10 min UV irradiation, 1 μg/mL printed for EO-OPE-DABCO
Protocol: FIG. 24 is a graph showing the viability of S. aureus cells with 1 μg/mL and 10 μg/mL of OPE-DABCO and EO-OPE-DABCO solution following exposure to UV light and incubation in dark.
[drawing 28] containing quaternary ammonium pendant groups based on 1,4-diazabicyclo-[2.2.2.]-octane (DABCO). It has been shown that the incorporation of the DABCO group into antimicrobials might amplify its ability to diffuse into the bacterial cell wall due to similarities between this moiety and the lipid layer. [Ref: Kenawy, E. R., S. D. Worley, and R. Broughton, The chemistry and applications of antimicrobial polymers: A state-of-the-art review. Biomacromolecules, 2007. 8(5): p. 1359-1384] Therefore, the binding of antimicrobials to the cytoplasmic membrane of the bacteria is increased by both ionic and van der Waals interactions. [Ref: Kenawy, E. R., S. D. Worley, and R. Broughton, The chemistry and applications of antimicrobial polymers: A state-of-the-art review. Biomacromolecules, 2007. 8(5): p. 1359-1384] These two oligomers have been employed to compare their antimicrobial activity both in the dark and under the UV light in regard to their structure difference.

[5] = Escherichia coli, K12BIOFILMS, read-out: MIC

Row | Compound | MIC [1, 5] [µg/mL] | MIC [1] [µg/mL] | killing of E. coli biofilm under near-UV light exposure ([2]; 1 h near-UV, in the concentration range tested) | dark killing of E. coli biofilm ([2]; 24 h dark, concentration range <1000 μg/mL) | MBEC (light) [2] [µg/mL] | MBEC (dark) [2] [µg/mL] | ΦΔ (quantum yield for singlet oxygen generation) [3] | killing / deactivation of S. aureus [4] [%] | deactivation of S. aureus with increasing irradiation time ([4]; UV, irradiation longer than 10 min (FIG. 24)) [%] | bacteria surviving ([4]; S. aureus, 10 min incubation in the dark) [%]
1 | CCCCCC[N+]12CC[N+](CCCOc3cc(C#Cc4ccc(C(=O)OCC)cc4)c(OCCC[N+]45CC[N+](CCCCCC)(CC4)CC5)cc3C#Cc3ccc(C(=O)OCC)cc3)(CC1)CC2 [oligomer (A)] | 52 | 51.7 | did not show any killing | did not exhibit any dark killing | >500 | >1000 | 0.34 ± 0.03 | ~75 | ~99 | –
2 | CCCCCC[N+]12CC[N+](CCCOc3ccc(C#Cc4ccc(C#Cc5ccc(OCCC[N+]67CC[N+](CCCCCC)(CC6)CC7)cc5)s4)cc3)(CC1)CC2 [oligomer (C)] | 15.8 | – | – | – | 60 | 150 | 0.46 ± 0.02 | – | – | –
3 | CCCCCC[N+]12CC[N+](CCCOc3ccc(C#Cc4ccc(C#Cc5ccc(OCCC[N+]67CC[N+](CCCCCC)(CC6)CC7)cc5)cc4)cc3)(CC1)CC2 [oligomer (B)] | 14 | 14.0 | – | – | 60 | 200 | 0.20 ± 0.02 | 100 | – | < 10
4 | NC[C@H]1O[C@H](O[C@H]2[C@H](O)[C@@H](O[C@H]3O[C@H](CO)[C@@H](O)[C@H](N)[C@H]3O)[C@H](N)C[C@@H]2N)[C@H](O)[C@@H](O)[C@@H]1O [kanamycin, reference compound] | 11.2 (≈ 23.1 µM) | – | – | – | – | >1000 | – | – | – | –
